# Experimental data: ChEMBL document CHEMBL1156270, “Small molecule JNK (c-Jun N-terminal kinase) inhibitors” (J Med Chem, 2010)
# pIC50, pKd, pKi: −log10 of the molar value.
# Legend:
# [1] = target: Mitogen-activated protein kinase 14 (Homo sapiens, UniProt Q16539); assay: Inhibition of p38alpha
# [2] = target: Mitogen-activated protein kinase 10 (Homo sapiens, UniProt P53779); assay: Inhibition of JNK3
# [3] = target: T1, Mitogen-activated protein kinase 8 (Homo sapiens, UniProt P45983); assay: Inhibition of JNK1
# T1 sequence (P45983 whole entry): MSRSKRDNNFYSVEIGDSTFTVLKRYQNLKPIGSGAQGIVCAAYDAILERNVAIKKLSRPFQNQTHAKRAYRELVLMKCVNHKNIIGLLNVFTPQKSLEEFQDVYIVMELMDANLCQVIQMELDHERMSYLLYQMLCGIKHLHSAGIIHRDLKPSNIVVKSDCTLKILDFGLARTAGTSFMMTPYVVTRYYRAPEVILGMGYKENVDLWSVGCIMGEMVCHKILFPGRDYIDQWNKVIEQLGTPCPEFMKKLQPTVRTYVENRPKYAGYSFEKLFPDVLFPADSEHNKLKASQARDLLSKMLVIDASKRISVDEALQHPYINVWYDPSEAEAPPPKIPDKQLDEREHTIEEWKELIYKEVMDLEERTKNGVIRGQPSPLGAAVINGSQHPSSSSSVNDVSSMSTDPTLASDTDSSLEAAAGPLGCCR
# [4] = system: SCG; assay: Protection against NGF deprivation-induced neuronal apoptosis in rat SCG cells after 24 hrs by MTT assay; format: functional, cell-based
# [5] = Oral bioavailability in rat; format: ADME, organism-based; settings: in vivo
# [6] = organism: Mus musculus; assay: Inhibition of LPS-induced TNFalpha production in mouse; format: functional
# [7] = target: T1, Mitogen-activated protein kinase 8; assay: Binding affinity to JNK1
# [8] = target: Mitogen-activated protein kinase 9 (Homo sapiens, UniProt P45984); assay: Inhibition of JNK2
# Chain of Mitogen-activated protein kinase 9 (P45984 whole entry): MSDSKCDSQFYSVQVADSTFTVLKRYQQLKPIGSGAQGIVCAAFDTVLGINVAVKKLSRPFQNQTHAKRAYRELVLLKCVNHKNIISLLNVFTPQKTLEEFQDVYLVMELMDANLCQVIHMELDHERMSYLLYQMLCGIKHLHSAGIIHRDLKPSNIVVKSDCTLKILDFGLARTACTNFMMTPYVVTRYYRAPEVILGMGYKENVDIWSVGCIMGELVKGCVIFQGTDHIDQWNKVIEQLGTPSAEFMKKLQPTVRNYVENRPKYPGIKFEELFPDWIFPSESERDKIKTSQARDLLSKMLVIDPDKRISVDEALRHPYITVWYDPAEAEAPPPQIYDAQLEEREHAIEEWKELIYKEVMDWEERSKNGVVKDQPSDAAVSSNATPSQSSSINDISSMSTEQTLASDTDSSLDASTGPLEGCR
# [9] = system: Mus musculus; assay: Reduction of body weight in diet-induced obese mouse at 30 mg/kg, po for 24 days; format: functional; set-up: scale not given: the % may be the effect or the level left
# [10] = system: Mus musculus; assay: Reduction of fat mass in diet-induced obese mouse at 30 mg/kg, po for 24 days relative to control; format: functional; set-up: scale not given: the % may be the effect or the level left
# Chain of Mitogen-activated protein kinase 10 (P53779 whole entry): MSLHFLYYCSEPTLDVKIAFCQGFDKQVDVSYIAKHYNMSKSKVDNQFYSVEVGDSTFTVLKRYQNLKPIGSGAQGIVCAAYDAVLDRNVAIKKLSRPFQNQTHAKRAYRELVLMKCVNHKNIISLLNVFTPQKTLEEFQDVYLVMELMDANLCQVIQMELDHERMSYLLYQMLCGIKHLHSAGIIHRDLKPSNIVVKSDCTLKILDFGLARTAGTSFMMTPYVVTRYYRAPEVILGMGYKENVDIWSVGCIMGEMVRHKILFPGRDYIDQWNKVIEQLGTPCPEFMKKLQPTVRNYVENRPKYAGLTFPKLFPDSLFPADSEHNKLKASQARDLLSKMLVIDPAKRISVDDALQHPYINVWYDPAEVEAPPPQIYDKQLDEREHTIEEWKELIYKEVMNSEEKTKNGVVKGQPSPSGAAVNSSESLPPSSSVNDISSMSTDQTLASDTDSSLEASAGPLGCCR
# Chain of Mitogen-activated protein kinase 14 (Q16539 whole entry): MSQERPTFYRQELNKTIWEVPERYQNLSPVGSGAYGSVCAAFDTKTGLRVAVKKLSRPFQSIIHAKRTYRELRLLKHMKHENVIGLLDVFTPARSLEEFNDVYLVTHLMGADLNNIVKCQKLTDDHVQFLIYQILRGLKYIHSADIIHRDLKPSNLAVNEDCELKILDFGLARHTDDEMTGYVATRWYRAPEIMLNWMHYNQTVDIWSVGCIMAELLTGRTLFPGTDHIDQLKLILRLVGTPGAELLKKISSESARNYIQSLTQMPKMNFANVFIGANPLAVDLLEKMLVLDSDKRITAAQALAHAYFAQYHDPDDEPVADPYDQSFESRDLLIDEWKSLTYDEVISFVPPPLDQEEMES
molecule,measurement,setting,value
CCCNc1nccc(-c2c(-c3ccc(F)cc3)nc3n2[C@H](Cc2ccc(OC)cc2)CC3)n1,pIC50,[1],7.27
same,pIC50,[2],7.96
c1ccc(Nc2ccc3c(-c4ccccc4)n[nH]c3c2)cc1,pIC50,[3],< 5.00
O=C(NCCCn1cnc(-c2ccc(F)cc2)c1-c1ccncc1)c1ccccc1,pIC50,[1],7.34
O=C(NCc1ccc(S(=O)(=O)N2CCC(n3nnc4ccccc43)CC2)s1)c1ccc(Cl)cc1,pIC50,[4],5.77
N#C/C(=C1/Nc2ccccc2S1)c1ccnc(NCCc2cccnc2)n1,bioavailability,[5],38%
same,ED50,[6],3 mg/kg
H-RPKRPTTLNLF-OH,pKd,[7],6.38
CN(C)CCCC(=O)Nc1cc(C(=O)O)cc(-c2n[nH]c3cc(Nc4ccccc4Cl)ccc23)c1,pIC50,[1],6.04
same,pIC50,[3],7.00
same,pIC50,[2],8.52
CN(C)c1c(-c2ccnc(N[C@H]3CC[C@H](O)CC3)n2)cnn1Cc1ccccc1,pKi,[3],8.52
same,pKi,[8],8.22
same,pKi,[2],8.30
O[C@H]1CC[C@H](Nc2nccc(-c3c[nH]nc3C3CCCOC3)n2)CC1 (some centres undefined),Activity,[9],13%
same,Activity,[10],30.1%
same,pKi,[3],8.05
same,pKi,[8],7.77
same,pKi,[2],7.80
